# Values of other authors in patent publication US12662707B2, “MYC amplification drives resistance to pan-RAS inhibitors in pancreatic cancer” (The Trustees of Columbia University in the City of New York, priority 2024, dated 2026).
# Tested on: autochthonous KPC pancreatic tumors
# Details: reference 27; cited from earlier work
smiles,measurement,value
Nc1ccn([C@@H]2O[C@H](CO)[C@@H](O)C2(F)F)c(=O)n1 [gemcitabine],effect on survival in the KPC model,do not significantly alter survival
